Values quoted from earlier work as cited in paper PMC6009888, “Design, synthesis, and pharmacological evaluation of 2-amino-5-nitrothiazole derived semicarbazones as dual inhibitors of monoamine oxidase and cholinesterase: effect of the size of aryl binding site” (Journal of Enzyme Inhibition and Medicinal Chemistry, 2017).

Columns and labels:
MAO-B [1] = system: MAO-B; parameters: method as in PMID 12553895, PMID 23325700, PMID 27135466; conditions: Figure 1, lead semicarbazone inhibitors; ref [47–50]; cited from earlier work
MAO-A [2] = system: MAO-A; parameters: method as in PMID 12553895, PMID 23325700, PMID 27135466; conditions: Figure 1, lead semicarbazone inhibitors; ref [47–50]; cited from earlier work
AChE = system: AChE; parameters: method as in PMID 12553895, PMID 23325700, PMID 27135466; conditions: Figure 1, lead semicarbazone inhibitors; ref [47–50]; cited from earlier work
MAO-B [3] = target: T1, MAO-B (Rattus norvegicus, UniProt P19643); parameters: method as in PMID 27135466; conditions: reference inhibitors; ref [50]; read-out: MAO-B In vitro IC50 (µM) ± SEM; cited from earlier work
T1 construct: employing crude rat brain mitochondrial suspension; from tissue; host or cells: brain mitochondria of adult Wistar rats
T1 sequence (P19643 1-520): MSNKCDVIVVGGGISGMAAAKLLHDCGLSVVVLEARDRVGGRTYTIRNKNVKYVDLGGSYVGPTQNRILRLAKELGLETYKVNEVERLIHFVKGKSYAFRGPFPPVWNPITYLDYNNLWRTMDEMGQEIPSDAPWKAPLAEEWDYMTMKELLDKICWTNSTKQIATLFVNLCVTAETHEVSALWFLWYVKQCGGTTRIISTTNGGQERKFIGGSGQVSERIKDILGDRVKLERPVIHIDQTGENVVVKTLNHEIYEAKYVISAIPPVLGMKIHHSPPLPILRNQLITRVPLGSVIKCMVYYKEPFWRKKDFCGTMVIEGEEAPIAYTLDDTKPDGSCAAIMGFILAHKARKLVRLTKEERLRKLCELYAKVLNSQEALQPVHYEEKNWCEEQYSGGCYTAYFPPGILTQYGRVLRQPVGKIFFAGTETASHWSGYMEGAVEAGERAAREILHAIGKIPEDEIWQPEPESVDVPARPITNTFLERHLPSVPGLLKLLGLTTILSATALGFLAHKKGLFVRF

MAO-A [4] = target: T2, MAO-A (Rattus norvegicus, UniProt P21396); conditions: reference inhibitors; ref [50]; read-out: MAO-A In vitro IC50 (µM) ± SEM; cited from earlier work
T2 construct: employing crude rat brain mitochondrial suspension; from tissue; host or cells: brain mitochondria of adult Wistar rats
T2 sequence (P21396 1-526): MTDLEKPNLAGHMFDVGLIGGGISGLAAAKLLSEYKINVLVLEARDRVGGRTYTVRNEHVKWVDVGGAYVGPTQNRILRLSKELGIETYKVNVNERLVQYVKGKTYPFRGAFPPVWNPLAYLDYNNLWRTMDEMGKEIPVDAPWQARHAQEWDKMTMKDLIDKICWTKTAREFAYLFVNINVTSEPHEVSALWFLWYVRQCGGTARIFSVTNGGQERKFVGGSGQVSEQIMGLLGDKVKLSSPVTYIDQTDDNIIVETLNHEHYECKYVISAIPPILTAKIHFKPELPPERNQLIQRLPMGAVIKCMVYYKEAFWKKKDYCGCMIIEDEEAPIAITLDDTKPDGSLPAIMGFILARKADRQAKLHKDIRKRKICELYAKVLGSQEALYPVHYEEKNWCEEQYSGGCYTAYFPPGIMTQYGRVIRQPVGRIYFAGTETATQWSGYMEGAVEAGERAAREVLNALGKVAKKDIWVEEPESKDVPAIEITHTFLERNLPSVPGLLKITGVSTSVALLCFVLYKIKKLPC

Structure (SMILES)	IC50 (MAO-B [1]) [nM]	IC50 (MAO-A [2]) [µM]	IC50 (AChE) [nM]	IC50 (MAO-B [3]) [µM]	IC50 (MAO-A [4]) [µM]
O=C(N/N=C(\c1ccccc1)c1ccc(Cl)cc1)Nc1nc2ccc([N+](=O)[O-])cc2s1 [(i)]	4 ± 1	0.184 ± 0.001	–	–	–
O=C(N/N=C/c1c(Cl)cccc1Cl)Nc1ccc2c(c1)OCO2 [(ii)]	59 ± 2	4.52 ± 0.032	8.7 ± 0.2	–	–
O=C(NN=C(c1ccccc1)c1ccccc1)Nc1ccncc1 [(iii)]	–	–	52 ± 10	–	–
CNC(=O)N(CCO)/N=C/c1ccc(OCc2ccccc2)cc1 [(iv)]	2200	90	–	–	–
O=C(N/N=C1/C(=O)Nc2ccccc21)Nc1nc2ccc([N+](=O)[O-])cc2s1 [(v)]	2150 ± 95	5.98 ± 0.534	–	–	–
COc1ccc2c(c1)[nH]c1c(C)nccc12 [HRM, Harmine]	–	–	–	7000	3
